Source: US7071202B2 (SuperGen, Inc., priority 2002, dated 2006)

Columns and labels:
[1] = tested on: human tumor xenografts; details: cited from earlier work
[2] = Grinding of Form A, XRPD; format: physicochemical; details: ground in an amalgamator for 10 minutes
Description: The XRPD data for the increased amorphous content material obtained by grinding a crystalline polymorph are plotted in FIG. 29. […] Further grinding is expected to increase the amorphous content and further broaden the XRPD pattern with the limit of the XRPD pattern being so broadened that it cannot be discerned above noise. When the XRPD pattern is broadened to the limit of being indiscernable, the material is no longer a crystalline material having increased amorphous content relative to unground crystallized material, but is a material that is wholly amorphous as defined herein.
The sample was then analyzed using XRPD.

[3] = Moisture sorption/desorption (VTI SGA-100 moisture balance); format: physicochemical; details: for hygroscopicity: from moisture sorption data, 5 to 95% RH; for Weight % chg: start, elapsed time 0.0 min, 25 deg C (RH 14.41% Form A, 9.87% Form B)
Description: The samples were not dried prior to analysis.

[4] = XRPD after storage in a closed vial at ambient conditions; format: physicochemical; details: 31 days
[5] = Dehydration/desolvation under vacuum, XRPD; format: physicochemical
Description: The characterization of this weight loss as THF solvent is supported by the ^1H NMR data.

[6] = cited from earlier work

## CC[C@@]1(O)C(=O)OCc2c1cc1n(c2=O)Cc2cc3c([N+](=O)[O-])cccc3nc2-1 [9-nitrocamptothecin, 9-nitro-20(S)-camptothecin]
[1]; immunodeficient nude mice
  growth of human tumor xenografts: inhibited the growth of human tumor xenografts
[1]; nude mice
  regression of established human tumor xenografts: induced regression of human tumors

## CC[C@@]1(O)C(=O)OCc2c1cc1n(c2=O)Cc2cc3c([N+](=O)[O-])cccc3nc2-1 [Form A, 9-nitrocamptothecin]
[2]
  effect of grinding on crystallinity (XRPD): losing crystallinity after grinding
[3]
  hysteresis between the hydration and dehydration curves: A small amount of hysteresis
  hygroscopicity: not hygroscopic
  Weight % chg: 0.0000%

## CC[C@@]1(O)C(=O)OCc2c1cc1n(c2=O)Cc2cc3c([N+](=O)[O-])cccc3nc2-1 [Form B, 9-nitrocamptothecin]
[4]
  stability of the crystalline form (XRPD pattern vs FIG. 5): relatively stable
[3]
  hysteresis between the hydration and dehydration curves: essentially no hysterisis
  hygroscopicity: relatively hygroscopic
  Weight % chg: 0.0000%

## CC[C@@]1(O)C(=O)OCc2c1cc1n(c2=O)Cc2cc3c([N+](=O)[O-])cccc3nc2-1 [Form C, 9-nitrocamptothecin]
[5]
  form after attempt to desolvate under vacuum: becomes amorphous

## CC[C@@](O)(C(=O)[O-])c1cc2n(c(=O)c1CO)Cc1cc3ccccc3nc1-2.[Na+] [Sodium camptothecin]
[6]; administered intravenously
  side effects in clinical trials: unpredictable side effects such as myelosuppression and hemorrhagic cystitis
[6]; solubilized by sodium hydroxide in water, intravenous
  activity in clinical trials: found to have antineoplastic activity
